Measured values reported in ChEMBL document CHEMBL3885861, “Open TG-GATES”.

Species on record: Rattus norvegicus
Assay: Open TG-GATES - Regimen: Single
Assay type: toxicity, organism-based, Sprague-Dawley
Set-up: regimen Single, gender Male, age 6 weeks
Settings: in vivo, po, 20 mg/kg, route gavage, dose level Low; for APTT / Bas / Eos / Fbg / Hb / Ht / Lym / MCH / MCHC / MCV / Mono / Neu / PT / Plat / RBC / Ret / WBC: tissue Blood; for KIDNEY_L / KIDNEY_R / KIDNEY_TOTAL: tissue Kidney; for LIVER: tissue Liver; for A/G / ALP / ALT / AST / BUN / CRE / Ca / Cl / DBIL / GLC / IP / K / LDH / Na / PL / RALB / TBIL / TC / TG / TP / gamma-GTP: tissue Plasma

Question: For Cn1c(=O)c2[nH]cnc2n(C)c1=O.O [THEOPHYLLINE], which TERMINAL_BW (3 h) is on record?
Answer: 211.4 g

Question: And the APTT (3 h)?
Answer: 22.4 s

Question: What about the Bas (3 h) of the same molecule?
Answer: 0%

Question: What about the Eos (3 h) of the same molecule?
Answer: 1%

Question: What about the Fbg (3 h) of the same molecule?
Answer: 298.2 mg/dL

Question: What about the Hb (3 h) of the same molecule?
Answer: 13.1 g/dL

Question: What about the Ht (3 h) of the same molecule?
Answer: 39.2%

Question: And the Lym (3 h)?
Answer: 80.4%

Question: And the MCH (3 h)?
Answer: 21.1 pg

Question: And the MCHC (3 h)?
Answer: 33.5%

Question: What about the MCV (3 h) of the same molecule?
Answer: 62.9 fL

Question: What about the Mono (3 h) of the same molecule?
Answer: 2.4%

Question: What about the Neu (3 h) of the same molecule?
Answer: 15.2%

Question: And the PT (3 h)?
Answer: 15.8 s

Question: And the Plat (3 h)?
Answer: 125.8 x10_4/uL

Question: And the RBC (3 h)?
Answer: 623 x10_4/ul

Question: What about the Ret (3 h) of the same molecule?
Answer: 7.2%

Question: What about the WBC (3 h) of the same molecule?
Answer: 83.9 x10_2/uL

Question: And the KIDNEY_L (3 h)?
Answer: 0.9 g

Question: And the KIDNEY_R (3 h)?
Answer: 0.9 g

Question: What about the KIDNEY_TOTAL (3 h) of the same molecule?
Answer: 1.8 g

Question: What about the LIVER (3 h) of the same molecule?
Answer: 9.4 g

Question: What about the A/G (3 h) of the same molecule?
Answer: 1.3

Question: And the ALP (3 h)?
Answer: 1988.6 IU/L

Question: And the ALT (3 h)?
Answer: 46.8 IU/L

Question: What about the AST (3 h) of the same molecule?
Answer: 75 IU/L

Question: And the BUN (3 h)?
Answer: 14.4 mg/dL

Question: And the CRE (3 h)?
Answer: 0.2 mg/dL

Question: And the Ca (3 h)?
Answer: 10.6 mg/dL

Question: What about the Cl (3 h) of the same molecule?
Answer: 108.8 meq/L

Question: And the DBIL (3 h)?
Answer: 0 mg/dL

Question: What about the GLC (3 h) of the same molecule?
Answer: 181.8 mg/dL

Question: And the IP (3 h)?
Answer: 7.2 mg/dL

Question: What about the K (3 h) of the same molecule?
Answer: 3.5 meq/L

Question: What about the LDH (3 h) of the same molecule?
Answer: 159.2 IU/L

Question: And the Na (3 h)?
Answer: 141.8 meq/L

Question: And the PL (3 h)?
Answer: 137.4 mg/dL

Question: And the RALB (3 h)?
Answer: 3.2 g/dL

Question: And the TBIL (3 h)?
Answer: 0.02 mg/dL

Question: What about the TC (3 h) of the same molecule?
Answer: 80.6 mg/dL

Question: What about the TG (3 h) of the same molecule?
Answer: 45.4 mg/dL

Question: What about the TP (3 h) of the same molecule?
Answer: 5.8 g/dL

Question: What about the gamma-GTP (3 h) of the same molecule?
Answer: 1.2 IU/L

Question: And the TERMINAL_BW (6 h)?
Answer: 213.7 g

Question: What about the APTT (6 h) of the same molecule?
Answer: 23.5 s

Question: What about the Bas (6 h) of the same molecule?
Answer: 0%

Question: What about the Eos (6 h) of the same molecule?
Answer: 0.6%

Question: And the Fbg (6 h)?
Answer: 315.4 mg/dL

Question: What about the Hb (6 h) of the same molecule?
Answer: 13.8 g/dL

Question: And the Ht (6 h)?
Answer: 41.9%

Question: And the Lym (6 h)?
Answer: 82.8%

Question: And the MCH (6 h)?
Answer: 20.8 pg

Question: What about the MCHC (6 h) of the same molecule?
Answer: 33.1%

Question: And the MCV (6 h)?
Answer: 63 fL

Question: What about the Mono (6 h) of the same molecule?
Answer: 2.4%

Question: And the Neu (6 h)?
Answer: 12.8%

Question: What about the PT (6 h) of the same molecule?
Answer: 15.5 s

Question: What about the Plat (6 h) of the same molecule?
Answer: 129.9 x10_4/uL

Question: What about the RBC (6 h) of the same molecule?
Answer: 664.6 x10_4/ul

Question: What about the Ret (6 h) of the same molecule?
Answer: 7.4%

Question: And the WBC (6 h)?
Answer: 99.4 x10_2/uL

Question: What about the KIDNEY_L (6 h) of the same molecule?
Answer: 0.9 g

Question: And the KIDNEY_R (6 h)?
Answer: 0.9 g

Question: What about the KIDNEY_TOTAL (6 h) of the same molecule?
Answer: 1.9 g

Question: And the LIVER (6 h)?
Answer: 9 g

Question: And the A/G (6 h)?
Answer: 1.2

Question: What about the ALP (6 h) of the same molecule?
Answer: 1532.8 IU/L

Question: What about the ALT (6 h) of the same molecule?
Answer: 46 IU/L

Question: What about the AST (6 h) of the same molecule?
Answer: 85.2 IU/L

Question: What about the BUN (6 h) of the same molecule?
Answer: 9.8 mg/dL

Question: And the CRE (6 h)?
Answer: 0.2 mg/dL

Question: What about the Ca (6 h) of the same molecule?
Answer: 10.5 mg/dL

Question: What about the Cl (6 h) of the same molecule?
Answer: 108.2 meq/L

Question: And the DBIL (6 h)?
Answer: 0 mg/dL

Question: What about the GLC (6 h) of the same molecule?
Answer: 178.2 mg/dL

Question: And the IP (6 h)?
Answer: 8.4 mg/dL

Question: And the K (6 h)?
Answer: 3.8 meq/L

Question: What about the LDH (6 h) of the same molecule?
Answer: 174.8 IU/L

Question: And the Na (6 h)?
Answer: 141 meq/L

Question: And the PL (6 h)?
Answer: 126.6 mg/dL

Question: What about the RALB (6 h) of the same molecule?
Answer: 3.1 g/dL

Question: What about the TBIL (6 h) of the same molecule?
Answer: 0.02 mg/dL

Question: What about the TC (6 h) of the same molecule?
Answer: 73.2 mg/dL

Question: What about the TG (6 h) of the same molecule?
Answer: 51.8 mg/dL

Question: And the TP (6 h)?
Answer: 5.6 g/dL

Question: And the gamma-GTP (6 h)?
Answer: 1.2 IU/L

Question: And the TERMINAL_BW (9 h)?
Answer: 210.6 g

Question: And the APTT (9 h)?
Answer: 23.2 s

Question: What about the Bas (9 h) of the same molecule?
Answer: 0%

Question: What about the Eos (9 h) of the same molecule?
Answer: 1%

Question: And the Fbg (9 h)?
Answer: 297 mg/dL

Question: What about the Hb (9 h) of the same molecule?
Answer: 13.5 g/dL

Question: And the Ht (9 h)?
Answer: 40.9%

Question: What about the Lym (9 h) of the same molecule?
Answer: 78%

Question: What about the MCH (9 h) of the same molecule?
Answer: 20.4 pg

Question: What about the MCHC (9 h) of the same molecule?
Answer: 33%

Question: What about the MCV (9 h) of the same molecule?
Answer: 61.6 fL

Question: What about the Mono (9 h) of the same molecule?
Answer: 2.4%

Question: What about the Neu (9 h) of the same molecule?
Answer: 18%

Question: What about the PT (9 h) of the same molecule?
Answer: 15.6 s

Question: And the Plat (9 h)?
Answer: 121.1 x10_4/uL

Question: What about the RBC (9 h) of the same molecule?
Answer: 666.6 x10_4/ul

Question: And the Ret (9 h)?
Answer: 6.9%

Question: And the WBC (9 h)?
Answer: 89.6 x10_2/uL

Question: And the KIDNEY_L (9 h)?
Answer: 0.9 g

Question: And the KIDNEY_R (9 h)?
Answer: 1 g

Question: And the KIDNEY_TOTAL (9 h)?
Answer: 1.9 g

Question: And the LIVER (9 h)?
Answer: 8.8 g

Question: And the A/G (9 h)?
Answer: 1.3

Question: What about the ALP (9 h) of the same molecule?
Answer: 1401 IU/L

Question: What about the ALT (9 h) of the same molecule?
Answer: 43.4 IU/L

Question: And the AST (9 h)?
Answer: 73.8 IU/L

Question: What about the BUN (9 h) of the same molecule?
Answer: 11.6 mg/dL

Question: What about the CRE (9 h) of the same molecule?
Answer: 0.2 mg/dL

Question: What about the Ca (9 h) of the same molecule?
Answer: 10.9 mg/dL

Question: And the Cl (9 h)?
Answer: 106 meq/L

Question: And the DBIL (9 h)?
Answer: 0 mg/dL

Question: What about the GLC (9 h) of the same molecule?
Answer: 170.4 mg/dL

Question: What about the IP (9 h) of the same molecule?
Answer: 8.8 mg/dL

Question: And the K (9 h)?
Answer: 4.3 meq/L

Question: And the LDH (9 h)?
Answer: 168 IU/L

Question: What about the Na (9 h) of the same molecule?
Answer: 140.8 meq/L

Question: What about the PL (9 h) of the same molecule?
Answer: 120.8 mg/dL

Question: And the RALB (9 h)?
Answer: 3.1 g/dL

Question: And the TBIL (9 h)?
Answer: 0.014 mg/dL

Question: What about the TC (9 h) of the same molecule?
Answer: 66.8 mg/dL

Question: What about the TG (9 h) of the same molecule?
Answer: 51.4 mg/dL

Question: What about the TP (9 h) of the same molecule?
Answer: 5.6 g/dL

Question: And the gamma-GTP (9 h)?
Answer: 1.2 IU/L

Question: And the TERMINAL_BW (24 h)?
Answer: 224.5 g

Question: And the APTT (24 h)?
Answer: 22.3 s

Question: What about the Bas (24 h) of the same molecule?
Answer: 0%

Question: What about the Eos (24 h) of the same molecule?
Answer: 1%

Question: What about the Fbg (24 h) of the same molecule?
Answer: 316.8 mg/dL

Question: And the Hb (24 h)?
Answer: 13.7 g/dL

Question: What about the Ht (24 h) of the same molecule?
Answer: 40.8%

Question: What about the Lym (24 h) of the same molecule?
Answer: 80%

Question: And the MCH (24 h)?
Answer: 20.6 pg

Question: What about the MCHC (24 h) of the same molecule?
Answer: 33.5%

Question: What about the MCV (24 h) of the same molecule?
Answer: 61.5 fL

Question: And the Mono (24 h)?
Answer: 2.6%

Question: What about the Neu (24 h) of the same molecule?
Answer: 15.2%

Question: And the PT (24 h)?
Answer: 15.9 s

Question: And the Plat (24 h)?
Answer: 146.8 x10_4/uL

Question: And the RBC (24 h)?
Answer: 664.2 x10_4/ul

Question: What about the Ret (24 h) of the same molecule?
Answer: 7.2%

Question: What about the WBC (24 h) of the same molecule?
Answer: 79.6 x10_2/uL

Question: And the KIDNEY_L (24 h)?
Answer: 0.9 g

Question: What about the KIDNEY_R (24 h) of the same molecule?
Answer: 1 g

Question: And the KIDNEY_TOTAL (24 h)?
Answer: 1.9 g

Question: What about the LIVER (24 h) of the same molecule?
Answer: 10.2 g

Question: What about the A/G (24 h) of the same molecule?
Answer: 1.2

Question: And the ALP (24 h)?
Answer: 1615.2 IU/L

Question: And the ALT (24 h)?
Answer: 38.6 IU/L

Question: What about the AST (24 h) of the same molecule?
Answer: 67.6 IU/L

Question: And the BUN (24 h)?
Answer: 16.4 mg/dL

Question: And the CRE (24 h)?
Answer: 0.2 mg/dL

Question: And the Ca (24 h)?
Answer: 11.1 mg/dL

Question: And the Cl (24 h)?
Answer: 106.2 meq/L

Question: What about the DBIL (24 h) of the same molecule?
Answer: 0 mg/dL

Question: What about the GLC (24 h) of the same molecule?
Answer: 186 mg/dL

Question: And the IP (24 h)?
Answer: 7.8 mg/dL

Question: And the K (24 h)?
Answer: 4.3 meq/L

Question: What about the LDH (24 h) of the same molecule?
Answer: 175.8 IU/L

Question: What about the Na (24 h) of the same molecule?
Answer: 142.6 meq/L

Question: And the PL (24 h)?
Answer: 145.8 mg/dL

Question: And the RALB (24 h)?
Answer: 3.1 g/dL

Question: What about the TBIL (24 h) of the same molecule?
Answer: 0.006 mg/dL

Question: And the TC (24 h)?
Answer: 79.2 mg/dL

Question: And the TG (24 h)?
Answer: 94.4 mg/dL

Question: And the TP (24 h)?
Answer: 5.6 g/dL

Question: And the gamma-GTP (24 h)?
Answer: 1.8 IU/L
